Data reported in PubChem BioAssay AID330 (DTP/NCI, 2004).
“And” between values parts separate entries of the source, which are not always exact repeats. Equal values may be shown once. Inconclusive results and toxic doses are left out.

Test system: P388 leukemia ip, CD2F1 mice, survival T/C
Assay: NCI In Vivo Anticancer Drug Screen. Data for tumor model P388 Leukemia (intraperitoneal) in CD2F1 (CDF1) mice
Details: endpoint: median survival time, higher = longer survival
Outline: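 Mice carrying the transplanted tumor received test compound or vehicle. Survival was recorded in each group, and the value is the treated-group measurement divided by that of the vehicle-treated control group.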

[1] = dose: 50.0 mg/kg/injection, schedule: Q01DX005 (ip), vehicle: saline with Tween-80
[2] = dose: 100.0 mg/kg/injection, schedule: Q01DX005 (ip), vehicle: saline with Tween-80
[3] = dose: 50.0 mg/kg/injection, schedule: Q01DX009 (ip), vehicle: saline with Tween-80
[4] = dose: 100.0 mg/kg/injection, schedule: Q01DX009 (ip), vehicle: saline with Tween-80
[5] = dose: 200.0 mg/kg/injection, schedule: Q01DX009 (ip), vehicle: saline with Tween-80
[6] = dose: 100.0 mg/kg/injection, schedule: Q01DX001 (ip), vehicle: Klucel (hydroxypropylcellulose) (HPC)
[7] = dose: 200.0 mg/kg/injection, schedule: Q01DX001 (ip), vehicle: Klucel (hydroxypropylcellulose) (HPC)
[8] = dose: 400.0 mg/kg/injection, schedule: Q01DX001 (ip), vehicle: Klucel (hydroxypropylcellulose) (HPC)
[9] = dose: 60.0 mg/kg/injection, schedule: Q01DX005 (ip), vehicle: saline with Tween-80
[10] = dose: 120.0 mg/kg/injection, schedule: Q01DX005 (ip), vehicle: saline with Tween-80
[11] = dose: 240.0 mg/kg/injection, schedule: Q01DX005 (ip), vehicle: saline with Tween-80

Structure (SMILES): CCOc1cc2c(cc1Cc1ccc(OC)cc1)OCO2
- T/C (dose: 50.0 mg/kg/injection, schedule: Q01DX005 (ip), vehicle: distilled water + alcohol): 108 % of control
- T/C (dose: 100.0 mg/kg/injection, schedule: Q01DX005 (ip), vehicle: distilled water + alcohol): 95 % of control
- T/C (dose: 200.0 mg/kg/injection, schedule: Q01DX005 (ip), vehicle: distilled water + alcohol): 109 % of control

Structure (SMILES): CC(C)=N/N=C(/N)[Se]
- T/C (dose: 3.12 mg/kg/injection, schedule: Q01DX009 (ip), vehicle: saline with Tween-80): 95 % of control
- T/C (dose: 6.25 mg/kg/injection, schedule: Q01DX009 (ip), vehicle: saline with Tween-80): 103 % of control
- T/C (dose: 12.5 mg/kg/injection, schedule: Q01DX009 (ip), vehicle: saline with Tween-80): 97 % of control

Structure (SMILES): COC1NC(=S)N(Cc2ccccc2)C1(C)C (stereo not given)
- T/C (dose: 50.0 mg/kg/injection, schedule: Q01DX009 (ip), vehicle: suspension in saline): 102 % of control
- T/C (dose: 100.0 mg/kg/injection, schedule: Q01DX009 (ip), vehicle: suspension in saline): 97 % of control
- T/C (dose: 200.0 mg/kg/injection, schedule: Q01DX009 (ip), vehicle: suspension in saline): 93 % of control

Structure (SMILES): C/C(Cl)=C/CN(C/C=C(/C)Cl)CCO
- T/C [1]: 101 % of control
- T/C [2]: 102 % of control

Structure (SMILES): O=C(NNC(=O)c1ccncc1)Nc1cccc(Cl)c1
- T/C (dose: 50.0 mg/kg/injection, schedule: Q01DX009 (ip), vehicle: Klucel (hydroxypropylcellulose) (HPC)): 95 % of control
- T/C (dose: 100.0 mg/kg/injection, schedule: Q01DX009 (ip), vehicle: Klucel (hydroxypropylcellulose) (HPC)): 96 % of control

Structure (SMILES): C/C=C/COCC
- T/C (dose: 100.0 mg/kg/injection, schedule: Q04DX003 (ip), vehicle: saline with Tween-80): 101 % of control
- T/C (dose: 200.0 mg/kg/injection, schedule: Q04DX003 (ip), vehicle: saline with Tween-80): 106 % of control
- T/C (dose: 400.0 mg/kg/injection, schedule: Q04DX003 (ip), vehicle: saline with Tween-80): 108 % of control

Structure (SMILES): C[n+]1cc2c3ccccc3ccc2c2ccccc21
- T/C (dose: 12.5 mg/kg/injection, schedule: Q04DX003 (ip), vehicle: distilled water + Tween-80): 113 % of control
- T/C (dose: 25.0 mg/kg/injection, schedule: Q04DX003 (ip), vehicle: distilled water + Tween-80): 105 % of control

Structure (SMILES): O[P+]1(c2ccccc2)OC(C(F)(F)F)(C(F)(F)F)C(C(F)(F)F)(C(F)(F)F)O1
- T/C (dose: 50.0 mg/kg/injection, schedule: Q01DX009 (ip), vehicle: saline): 108 % of control
- T/C (dose: 100.0 mg/kg/injection, schedule: Q01DX009 (ip), vehicle: saline): 99 % of control
- T/C (dose: 200.0 mg/kg/injection, schedule: Q01DX009 (ip), vehicle: saline): 107 % of control

Structure (SMILES): CC1CCCC(CC2CCCC[N-]2)[N-]1.CC1CCCC(CC2CCCC[N-]2)[N-]1.[Ni+2].[O-][Cl+3]([O-])([O-])O (stereo not given)
- T/C (dose: 25.0 mg/kg/injection, schedule: Q01DX001 (ip), vehicle: saline): 95 % of control
- T/C (dose: 50.0 mg/kg/injection, schedule: Q01DX001 (ip), vehicle: saline): 94 % of control
- T/C (dose: 100.0 mg/kg/injection, schedule: Q01DX001 (ip), vehicle: saline): 108 % of control and 95 % of control

Structure (SMILES): CN(C)CC[CH2][Sn]([CH2]CCN(C)C)([CH2]CCN(C)C)[CH2]CCN(C)C
- T/C [3]: 105 % of control
- T/C [4]: 97 % of control

Structure (SMILES): CO[C@H](/C(C)=C/C=C/C(C)=C/c1coc(C)n1)[C@H](C)[C@H]1C[C@@H](O)[C@@]2(C)O[C@H]2/C=C/[C@@H](C)[C@@H]2C[C@@H](CC(=O)O2)C[C@H]2O[C@@H]2C(=O)O1
- T/C (dose: 0.1 mg/kg/injection, schedule: Q01DX005 (ip), vehicle: Klucel (hydroxypropylcellulose) (HPC)): 150 % of control
- T/C (dose: 0.12 mg/kg/injection, schedule: Q01DX005 (ip), vehicle: Klucel (hydroxypropylcellulose) (HPC)): 150 % of control
- T/C (dose: 0.14 mg/kg/injection, schedule: Q01DX005 (ip), vehicle: Klucel (hydroxypropylcellulose) (HPC)): 152 % of control and 160 % of control
- T/C (dose: 0.18 mg/kg/injection, schedule: Q01DX005 (ip), vehicle: Klucel (hydroxypropylcellulose) (HPC)): 160 % of control
- T/C (dose: 0.24 mg/kg/injection, schedule: Q01DX005 (ip), vehicle: Klucel (hydroxypropylcellulose) (HPC)): 166 % of control
- T/C (dose: 0.45 mg/kg/injection, schedule: Q01DX005 (ip), vehicle: Klucel (hydroxypropylcellulose) (HPC)): 171 % of control and 184 % of control and 195 % of control
- T/C (dose: 0.67 mg/kg/injection, schedule: Q01DX005 (ip), vehicle: Klucel (hydroxypropylcellulose) (HPC)): 181 % of control and 191 % of control
- T/C (dose: 10.0 micrograms/kg/injection, schedule: Q01DX005 (ip), vehicle: Klucel (hydroxypropylcellulose) (HPC)): 104 % of control
- T/C (dose: 20.0 micrograms/kg/injection, schedule: Q01DX005 (ip), vehicle: Klucel (hydroxypropylcellulose) (HPC)): 109 % of control and 123 % of control
- T/C (dose: 80.0 micrograms/kg/injection, schedule: Q01DX005 (ip), vehicle: Klucel (hydroxypropylcellulose) (HPC)): 163 % of control

Structure (SMILES): Clc1ccc2noc(-c3ccccc3)c2c1
- T/C [3]: 94 % of control
- T/C [4]: 91 % of control
- T/C [5]: 98 % of control
- T/C (dose: 400.0 mg/kg/injection, schedule: Q01DX009 (ip), vehicle: saline with Tween-80): 94 % of control

Structure (SMILES): COc1ccc2nc3cc(Cl)ccc3c(Nc3ccc(NC(C)=O)cc3)c2n1
- T/C (dose: 6.25 mg/kg/injection, schedule: Q01DX009 (ip), vehicle: other): 106 % of control
- T/C (dose: 12.5 mg/kg/injection, schedule: Q01DX009 (ip), vehicle: other): 102 % of control
- T/C (dose: 25.0 mg/kg/injection, schedule: Q01DX009 (ip), vehicle: other): 100 % of control
- T/C (dose: 50.0 mg/kg/injection, schedule: Q01DX009 (ip), vehicle: other): 96 % of control
- T/C (dose: 100.0 mg/kg/injection, schedule: Q01DX009 (ip), vehicle: other): 99 % of control

Structure (SMILES): O=C1C(N=Nc2ccccc2Cl)C(O)N(c2ccccc2)C(=S)N1c1cccc(Cl)c1Cl (stereo not given)
- T/C [6]: 98 % of control
- T/C [7]: 103 % of control
- T/C [8]: 97 % of control

Structure (SMILES): CN(C)c1ccnc2c1cnn2C1OC(CO)C(O)C1O (stereo not given)
- T/C (dose: 25.0 mg/kg/injection, schedule: Q01DX005 (ip), vehicle: saline with Tween-80): 97 % of control
- T/C [1]: 108 % of control
- T/C [2]: 106 % of control

Structure (SMILES): COC1=C/C(=C\N(O)C(C)(C)CO)C=CC1=O
- T/C [3]: 99 % of control
- T/C [4]: 91 % of control
- T/C [5]: 91 % of control

Structure (SMILES): Cc1ccc(C(=O)C(c2nc3n(c2O)/C(=N/C(=O)Nc2ccc(Cl)cc2)N=N3)c2nc3n(c2O)/C(=N/C(=O)Nc2ccc(Cl)cc2)N=N3)cc1
- T/C (dose: 60.0 mg/kg/injection, schedule: Q01DX005 (ip), vehicle: saline): 99 % of control
- T/C (dose: 120.0 mg/kg/injection, schedule: Q01DX005 (ip), vehicle: saline): 97 % of control
- T/C (dose: 240.0 mg/kg/injection, schedule: Q01DX005 (ip), vehicle: saline): 87 % of control

Structure (SMILES): O=C1CCC2(CC(Br)C(=O)c3ccccc32)C(=O)N1 (stereo not given)
- T/C (dose: 60.0 mg/kg/injection, schedule: Q01DX005 (ip), vehicle: Klucel (hydroxypropylcellulose) (HPC)): 113 % of control
- T/C (dose: 120.0 mg/kg/injection, schedule: Q01DX005 (ip), vehicle: Klucel (hydroxypropylcellulose) (HPC)): 113 % of control

Structure (SMILES): CC(C)(C)c1nnc2cccc(Cl)n12
- T/C [6]: 100 % of control
- T/C [7]: 99 % of control
- T/C [8]: 103 % of control

Structure (SMILES): COC(NC(N)=O)C(=O)O (stereo not given)
- T/C [3]: 99 % of control
- T/C [4]: 99 % of control
- T/C [5]: 99 % of control

Structure (SMILES): Cc1cc2nc(SCC(N)=O)nn2c(C)n1
- T/C [9]: 100 % of control
- T/C [10]: 100 % of control
- T/C [11]: 99 % of control

Structure (SMILES): O=C(O)c1cc2c3ccccc3ncc2c2ccccc12
- T/C (dose: 100.0 mg/kg/injection, schedule: Q01DX001 (ip), vehicle: saline with Tween-80): 113 % of control
- T/C (dose: 200.0 mg/kg/injection, schedule: Q01DX001 (ip), vehicle: saline with Tween-80): 100 % of control
- T/C (dose: 400.0 mg/kg/injection, schedule: Q01DX001 (ip), vehicle: saline with Tween-80): 100 % of control

Structure (SMILES): CCOC(=O)/C=C/C(=O)NNS(=O)(=O)CCC(N)C(=O)O (stereo not given)
- T/C (dose: 12.5 mg/kg/injection, schedule: Q01DX009 (ip), vehicle: water): 101 % of control
- T/C (dose: 25.0 mg/kg/injection, schedule: Q01DX009 (ip), vehicle: water): 95 % of control
- T/C (dose: 50.0 mg/kg/injection, schedule: Q01DX009 (ip), vehicle: water): 100 % of control
- T/C (dose: 100.0 mg/kg/injection, schedule: Q01DX009 (ip), vehicle: water): 116 % of control

Structure (SMILES): CCC(=O)Cc1nc2n(c1O)/C(=N/C(=O)Nc1ccc(Cl)cc1)N=N2
- T/C [9]: 100 % of control
- T/C [10]: 98 % of control
- T/C [11]: 98 % of control

Structure (SMILES): Cc1ccc(S(=O)(=O)OC(=C(F)F)[Si](C)(C)C)cc1
- T/C [3]: 102 % of control
- T/C [4]: 94 % of control
